Laboratory results published in patent publication US11331299B2, “Medicinal use of serrulatane diterpenes” (The University of Sydney, priority 2016, dated 2022).
Read-outs that look alike come from different tables or passages of the source.

Tested on: 280 human cancer cell lines
Test: OncoPanel cell proliferation assay (10-day)
Type: cell-based
Details: for EC50: read-out: Cell Count EC50; for IC50: read-out: Cell Count IC50
[1] = Homo sapiens, 22Rv1, 22Rv1, Prostate
[2] = Homo sapiens, 786-0, 786-O, Kidney
[3] = Homo sapiens, A7, Skin (Melanoma)
[4] = Homo sapiens, A101D, Skin (Melanoma)
[5] = Homo sapiens, A 172, A172, CNS - Glioma
[6] = Homo sapiens, A253, A-253, Head and Neck
[7] = Homo sapiens, A388, Head and Neck
[8] = Homo sapiens, A498, A498, Kidney
[9] = Homo sapiens, A549, A549, Lung - NSCLC
[10] = Homo sapiens, A673, A-673, Soft Tissue - Sarcoma
[11] = Homo sapiens, A704, A-704, Kidney
[12] = Homo sapiens, A-375, A375, Skin (Melanoma)
[13] = Homo sapiens, A-427, A427, Lung - NSCLC
[14] = Homo sapiens, A-431, A431, Head and Neck
[15] = Homo sapiens, AN3-CA, AN3 CA, Female GU - Uterus
[16] = Homo sapiens, ARH-77, ARH-77, Myeloma
[17] = Homo sapiens, ASPC1, AsPC-1, Pancreas
[18] = Homo sapiens, AU565, AU565, Breast
[19] = Homo sapiens, BCP-1, BCP-1, Lymphoma
[20] = Homo sapiens, BE(2)-C, BE(2)C, CNS - Neuroblastoma
[21] = Homo sapiens, BFTC-905, BFTC-905, Bladder
[22] = Homo sapiens, BHT-101, BHT-101, Endocrine - Thyroid
[23] = Homo sapiens, BM-1604, BM-1604, Prostate
[24] = Homo sapiens, BPH-1, BPH1, Prostate
[25] = Homo sapiens, BT-20, BT20, Breast

CC(C)=CCC[C@H](C)[C@@H]1CC[C@@H](C)c2c1cc(C)c(O)c2O [Compound 4, 7,8-dihydroxyserrulat-14-ene]
Number of cell types, GI Activity Potent (GI50 range 0.03-0.099 μM, of 280 cell types): 0 | Number of cell types, GI Activity moderately potent (GI50 range 0.1-0.99 μM, of 280 cell types): 1 | Number of cell types, GI Activity Strong (GI50 range 1-2.99 μM, of 280 cell types): 11 | Number of cell types, GI Activity moderately strong (GI50 range 3-9.99 μM, of 280 cell types): 125 | Number of cell types, GI Activity weak (GI50 range 10-30.00 μM, of 280 cell types): 130 | Number of cell types, GI Activity very weak (GI50 range >30 μM, of 280 cell types): 13 | GI50 (Homo sapiens, 12 cell lines with moderately potent to strong activity, read-out: GI50): 0.68 to 2.92 µM | EC50 [1]: 9.08 µM | GI50 (Homo sapiens, 22Rv1, 22Rv1, Prostate, read-out: Cell Count GI50): 9 µM | IC50 [1]: 9.08 µM | EC50 (Homo sapiens, 647-V, Bladder): 5.99 µM | GI50 (Homo sapiens, 647-V, Bladder, read-out: Cell Count GI50): 5.99 µM | IC50 (Homo sapiens, 647-V, Bladder): 6 µM | EC50 (Homo sapiens, 769-P, Kidney): 3.72 µM | GI50 (Homo sapiens, 769-P, Kidney, read-out: Cell Count GI50): 3.71 µM | IC50 (Homo sapiens, 769-P, Kidney): 3.72 µM | EC50 [2]: 14 µM | GI50 (Homo sapiens, 786-0, 786-O, Kidney, read-out: Cell Count GI50): 13.9 µM | IC50 [2]: 14 µM | EC50 (Homo sapiens, 5637, Bladder): 15.2 µM | GI50 (Homo sapiens, 5637, Bladder, read-out: Cell Count GI50): 15.1 µM | IC50 (Homo sapiens, 5637, Bladder): 15.2 µM | EC50 [3]: 10.5 µM | GI50 (Homo sapiens, A7, Skin (Melanoma), read-out: Cell Count GI50): 10.5 µM | IC50 [3]: 10.5 µM | EC50 [4]: > 30 µM | GI50 (Homo sapiens, A101D, Skin (Melanoma), read-out: Cell Count GI50): > 30 µM | IC50 [4]: > 30 µM | EC50 [5]: 8.08 µM | GI50 (Homo sapiens, A 172, A172, CNS - Glioma, read-out: Cell Count GI50): 8.03 µM | IC50 [5]: 8.08 µM | EC50 [6]: 18.2 µM | GI50 (Homo sapiens, A253, A-253, Head and Neck, read-out: Cell Count GI50): 18.1 µM | IC50 [6]: 18.2 µM | EC50 [7]: 7.66 µM | GI50 (Homo sapiens, A388, Head and Neck, read-out: Cell Count GI50): 7.59 µM | IC50 [7]: 7.66 µM | EC50 [8]: 12.3 µM | GI50 (Homo sapiens, A498, A498, Kidney, read-out: Cell Count GI50): 12.2 µM | IC50 [8]: 12.3 µM | EC50 [9]: 10.9 µM | GI50 (Homo sapiens, A549, A549, Lung - NSCLC, read-out: Cell Count GI50): 10.8 µM | IC50 [9]: 10.9 µM | EC50 [10]: 2.88 µM | GI50 (Homo sapiens, A673, A-673, Soft Tissue - Sarcoma, read-out: Cell Count GI50): 2.87 µM | IC50 [10]: 2.88 µM | EC50 [11]: 5.7 µM | GI50 (Homo sapiens, A704, A-704, Kidney, read-out: Cell Count GI50): 5.41 µM | IC50 [11]: 5.7 µM | EC50 [12]: 5.74 µM | GI50 (Homo sapiens, A-375, A375, Skin (Melanoma), read-out: Cell Count GI50): 5.74 µM | IC50 [12]: 5.74 µM | EC50 [13]: 10 µM | GI50 (Homo sapiens, A-427, A427, Lung - NSCLC, read-out: Cell Count GI50): 9.98 µM | IC50 [13]: 10 µM | EC50 [14]: 24.8 µM | GI50 (Homo sapiens, A-431, A431, Head and Neck, read-out: Cell Count GI50): 24.8 µM | IC50 [14]: 24.8 µM | EC50 (Homo sapiens, ACHN, Kidney): 9.5 µM | GI50 (Homo sapiens, ACHN, Kidney, read-out: Cell Count GI50): 9.47 µM | IC50 (Homo sapiens, ACHN, Kidney): 9.5 µM | EC50 (Homo sapiens, AGS, Stomach): 5.25 µM | GI50 (Homo sapiens, AGS, Stomach, read-out: Cell Count GI50): 5.24 µM | IC50 (Homo sapiens, AGS, Stomach): 5.25 µM | EC50 [15]: 9.62 µM | GI50 (Homo sapiens, AN3-CA, AN3 CA, Female GU - Uterus, read-out: Cell Count GI50): 9.43 µM | IC50 [15]: 9.62 µM | EC50 [16]: 13.5 µM | GI50 (Homo sapiens, ARH-77, ARH-77, Myeloma, read-out: Cell Count GI50): 13.4 µM | IC50 [16]: 13.5 µM | EC50 [17]: 14.7 µM | GI50 (Homo sapiens, ASPC1, AsPC-1, Pancreas, read-out: Cell Count GI50): 14.5 µM | IC50 [17]: 14.7 µM | EC50 [18]: 10.1 µM | GI50 (Homo sapiens, AU565, AU565, Breast, read-out: Cell Count GI50): 10 µM | IC50 [18]: 10.1 µM | EC50 (Homo sapiens, BC-1, Lymphoma): 4.16 µM | GI50 (Homo sapiens, BC-1, Lymphoma, read-out: Cell Count GI50): 4.16 µM | IC50 (Homo sapiens, BC-1, Lymphoma): 4.16 µM | EC50 [19]: 8.82 µM | GI50 (Homo sapiens, BCP-1, BCP-1, Lymphoma, read-out: Cell Count GI50): 8.75 µM | IC50 [19]: 8.82 µM | EC50 [20]: 13.1 µM | GI50 (Homo sapiens, BE(2)-C, BE(2)C, CNS - Neuroblastoma, read-out: Cell Count GI50): 13 µM | IC50 [20]: 13.1 µM | EC50 [21]: 9.7 µM | GI50 (Homo sapiens, BFTC-905, BFTC-905, Bladder, read-out: Cell Count GI50): 9.68 µM | IC50 [21]: 9.7 µM | EC50 [22]: 6.8 µM | GI50 (Homo sapiens, BHT-101, BHT-101, Endocrine - Thyroid, read-out: Cell Count GI50): 6.77 µM | IC50 [22]: 6.8 µM | EC50 [23]: > 30 µM | GI50 (Homo sapiens, BM-1604, BM-1604, Prostate, read-out: Cell Count GI50): > 30 µM | IC50 [23]: > 30 µM | EC50 [24]: 17.3 µM | GI50 (Homo sapiens, BPH-1, BPH1, Prostate, read-out: Cell Count GI50): 17.3 µM | IC50 [24]: 17.3 µM | EC50 [25]: 14.1 µM | GI50 (Homo sapiens, BT-20, BT20, Breast, read-out: Cell Count GI50): 13.9 µM | IC50 [25]: 14.3 µM | EC50 (Homo sapiens, BT-474, BT474, Breast): 25.5 µM
